Where a SMILES comes first, the peptide text is derived from it.
Key:
Serine protease hepsin = Serine protease hepsin (Homo sapiens, UniProt P05981); experiment: Inhibition of human recombinant hepsin using Boc-QAR-AMC as substrate preincubated for 30 mins followed by substrate addition measured for 15 to 120 mins by plate reader analysis
[1] = biological target: T1, Suppressor of tumorigenicity 14 protein homolog (Mus musculus, UniProt P56677); experiment: Inhibition of mouse recombinant matriptase using Boc-QAR-AMC as substrate preincubated for 30 mins followed by substrate addition measured for 15 to 120 mins by plate reader analysis
T1 sequence (P56677 whole entry): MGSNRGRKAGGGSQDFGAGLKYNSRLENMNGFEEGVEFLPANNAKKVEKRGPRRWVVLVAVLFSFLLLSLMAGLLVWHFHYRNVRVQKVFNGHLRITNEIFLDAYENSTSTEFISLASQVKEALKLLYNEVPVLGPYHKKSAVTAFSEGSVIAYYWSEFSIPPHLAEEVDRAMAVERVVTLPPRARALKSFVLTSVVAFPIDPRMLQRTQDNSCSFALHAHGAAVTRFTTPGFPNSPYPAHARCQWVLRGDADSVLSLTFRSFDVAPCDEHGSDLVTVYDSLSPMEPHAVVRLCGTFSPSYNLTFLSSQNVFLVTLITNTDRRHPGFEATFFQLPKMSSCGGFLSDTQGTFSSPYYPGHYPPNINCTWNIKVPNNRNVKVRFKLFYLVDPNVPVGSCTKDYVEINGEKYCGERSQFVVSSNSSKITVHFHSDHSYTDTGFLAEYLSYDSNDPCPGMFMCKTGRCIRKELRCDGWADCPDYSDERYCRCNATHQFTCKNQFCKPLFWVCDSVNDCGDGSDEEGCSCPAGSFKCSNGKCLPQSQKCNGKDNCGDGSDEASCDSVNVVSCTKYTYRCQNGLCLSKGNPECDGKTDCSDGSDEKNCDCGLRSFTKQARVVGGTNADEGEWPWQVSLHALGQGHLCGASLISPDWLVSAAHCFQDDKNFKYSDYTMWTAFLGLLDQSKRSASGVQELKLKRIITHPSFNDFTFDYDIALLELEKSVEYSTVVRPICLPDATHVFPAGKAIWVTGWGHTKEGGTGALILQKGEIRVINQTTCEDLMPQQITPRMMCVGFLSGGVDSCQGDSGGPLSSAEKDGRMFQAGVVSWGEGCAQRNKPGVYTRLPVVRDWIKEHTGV

[2] = Selectivity ratio of Ki for mouse recombinant matriptase to Ki for human recombinant hepsin

Chain of Serine protease hepsin (P05981 1-162 limits assumed): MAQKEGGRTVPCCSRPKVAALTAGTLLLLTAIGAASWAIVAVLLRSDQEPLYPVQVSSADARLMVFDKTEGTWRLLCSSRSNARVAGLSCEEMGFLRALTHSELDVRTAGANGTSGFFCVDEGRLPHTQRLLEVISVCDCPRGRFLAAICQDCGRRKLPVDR
Chain of Serine protease hepsin (P05981 163-417 limits assumed): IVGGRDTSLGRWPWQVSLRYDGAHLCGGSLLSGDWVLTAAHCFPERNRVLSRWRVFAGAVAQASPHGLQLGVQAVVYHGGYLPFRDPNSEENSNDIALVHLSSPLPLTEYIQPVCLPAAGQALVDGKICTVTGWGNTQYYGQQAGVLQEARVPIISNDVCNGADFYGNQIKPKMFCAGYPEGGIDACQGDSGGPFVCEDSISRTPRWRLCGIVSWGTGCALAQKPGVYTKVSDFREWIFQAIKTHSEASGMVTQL

Ki (Serine protease hepsin)	Ki [1]	Ratio Ki [2]	SMILES
1.45 nM	10.4 nM	–	CC(=O)N[C@@H](CCCCN)C(=O)N[C@@H](CCC(N)=O)C(=O)N[C@@H](CC(C)C)C(=O)N[C@@H](CCCNC(=N)N)C(=O)c1nccs1
21.5 nM	246 nM	8	CC(=O)N[C@@H](CC(C)C)C(=O)N[C@H](CCCNC(=N)N)C(=O)c1nccs1
2.88 nM	11.1 nM	8	CC(=O)N[C@@H](CCC(N)=O)C(=O)N[C@@H](CC(C)C)C(=O)N[C@H](CCCNC(=N)N)C(=O)c1nccs1
0.83 nM	8 nM	–	CC(=O)N[C@@H](CCCCN)C(=O)N[C@@H](CCC(N)=O)C(=O)N[C@@H](CC(C)C)C(=O)N[C@H](CCCNC(=N)N)C(=O)c1nccs1
> 10000 nM	> 10000 nM	–	CC(=O)N[C@@H](CC(C)C)C(=O)N[C@H](CCCNC(=N)N)C(=O)c1ccccc1
22.4 nM	334 nM	8	CC(=O)N[C@@H](CC(C)C)C(=O)N[C@@H](CCCNC(=N)N)C(=O)c1nccs1
2.91 nM	177 nM	> 60	CC(=O)N[C@@H](CC(C)C)C(=O)N[C@H](CCCNC(=N)N)C(=O)c1nc2ccccc2s1
> 10000 nM	> 10000 nM	–	CC(=O)N[C@@H](CCCCN)C(=O)N[C@@H](CCC(N)=O)C(=O)N[C@@H](CC(C)C)C(=O)O (Ac-Lys-Gln-Leu-OH)
> 10000 nM	> 10000 nM	–	CC(=O)N[C@@H](CC(C)C)C(=O)N[C@@H](CCCNC(=N)N)C(=O)c1ccccc1
3.38 nM	227 nM	> 60	CC(=O)N[C@@H](CC(C)C)C(=O)N[C@@H](CCCN=C(N)N)C(=O)c1nc2ccccc2s1
> 10000 nM	> 10000 nM	–	CC(=O)N[C@@H](CCCNC(=N)N)C(=O)c1nccs1
1.04 nM	11.3 nM	8	CC(=O)N[C@@H](CCC(N)=O)C(=O)N[C@@H](CC(C)C)C(=O)N[C@@H](CCCNC(=N)N)C(=O)c1nccs1

Source: ChEMBL document CHEMBL3745608, “Structure-based design, synthesis, and biological evaluation of Leu-Arg dipeptide analogs as novel hepsin inhibitors” (Bioorg Med Chem Lett, 2016)
